Laboratory results as given in EP4140481A1, “PROTEIN-OLIGOMER BINDING AGENTS AND THERAPEUTIC USES THEREOF” (Galyan Bio, Inc., priority 2021, dated 2023).
Several values for one entry are separate records, joined by “and”; a condition that tells them apart may be missing. Identical values can stand only once.

How the values were obtained:
Microsomal stability = type: in vitro ADME; conditions: humans versus mice
[1] = Solubilization of Compound 4; type: physicochemical
Htt Exon-1 Q16 = Htt Exon-1 Q16 (Homo sapiens, UniProt P42858, DEL34-38); experiment: Dynamic Light Scattering (DLS), induced aggregation; type: biochemical
Protocol: (§1) Proteins were ultracentrifuged with 50,000 rpm (rounds per minute) for one hour at 2 °C. The supernatant was used for DLS measurements. DLS measurements were conducted with Malvern Zetasizer Nano (Malvern Panalytical Ltd, United Kingdom).
(§2) Futher experiments were made with Htt Exon-1 Q16 and Q46. Table 28 Size Distribution (Volume and Number) of Q16 under various conditions

Htt Exon-1 Q46 = target: T1, Htt Exon-1 Q46 (Homo sapiens, UniProt P42858, INS38QQQQQQQQQQQQQQQQQQQQQQQQQ); experiment: as above; type: biochemical
T1 construct: Futher experiments were made with Htt Exon-1 Q16 and Q46
Protocol: as §1, §2

zebrafish larvae = experiment: Motility Zebrafish Model (MPP+ exposure, photomotor assay and sleep)
Protocol: Six groups were included in each experiment. Immediately after spawning, 40 embryos per group were allocated to a 24-well plate and system water (solvent) was added to all wells. […] MPP+ was prepared immediately prior to incubation and solutions were changed daily. At 120 hpf, drug treatment and MPP+ exposure was ceased and a 3X wash was performed with system water. Larvae were then relocated to 96-well plates for behavioral recording and placed in a separate recording room for 24-hour acclimation. Prior to behavioral recording, wells were fully replenished system water.
Naive group was exposed to solvent only. Vehicle group was exposed to solvent and vehicle corresponding to the vehicle of 20 µM drug solution (0.02% DMSO). MPP+ positive control was exposed to solvent and 500 µM MPP+.
Behavioral data was recorded from 1 p.m. on 6 dpf until shortly after wakening on 7 dpf. The recording consisted of a photomotor assay in which lights switch off and on in 30-minute intervals between 1 p.m. and 6 p.m., producing a consistent photomotor response. […] Upon lights being turned on again, the larvae cease movement followed by a return to baseline. This cycle is repeated five times. Following the last lights-off phase, constant illumination is presented until lights turn off at 10 p.m. for the night. Lights turn on again at 8 a.m. the following day.
Average movement frequency was measured during 30-minute lights-on phases of photomotor assay.
Distance moved (mm) was defined as the average distance moved during 30-minute lights-on phases of photomotor assay.
All data are presented as mean ± standard error of the mean (sem). For analysis of differences between groups, a Kruskal-Wallis one-way ANOVA with Dunn's multiple comparison post hoc test was performed. P < 0.05 was considered statistically significant.

C. elegans [2] = conditions: in vivo
Protocol: Background: First, acute toxicity assays were performed to test the toxicity of the compounds in adult worms by simulating the actual conditions of the lifespan assay. This accomplished two things. First, in the early stages it determines doses that are acutely toxic to adult worms. Second, over time the worms are scored to rule out doses that despite low initial toxicity, will likely have a negative impact on lifespan. Worms are plated on the exact media and sealed plates that will be used in the lifespan assay and then incubated at 25°C to provide a pilot lifespan that helps catch any other dosing and delivery pitfalls early. Adult worms were monitored in the days immediately following exposure for lethality or any other obvious defects.
Results: Worms were treated with either vehicle control or Compound 4 at concentrations of 50nM, 500nM, 5µM, 50µM, and 500µM. […] The exception is that the worms are incubated at 25°C instead of 20°C to accelerate the aging process. […] Worms were then scored periodically for early deaths. Worms treated with 5 µM Compound 4 or higher concentrations began to decline faster than vehicle control-treated worms. As these doses would be unlikely to increase lifespan in an actual lifespan assay, this placed the upper boundary of effective concentrations between 500 nM and 5 µM (Figure 52 (B)). […]

C. elegans [3] = experiment: C. elegans lifespan assay (Automated Lifespan Machine); type: in vivo
Protocol: Experimental Design: The lifespan assay was initiated by expanding all replicate groups to more than 1000 worms, then synchronizing by bleaching and allowing larval worms to hatch and arrest. To eliminate the effect of bacterial metabolism and growth on lifespan, synchronized worms were only exposed to dead food bacteria. To suppress progeny, worms are transferred to media containing 5-Fluorodeoxyuridine (FUdR) within 54-60 hours post plating. Worms are inspected at 24 and48 hours after this transfer to confirm infertility. Finally, the worms are inspected for general health and morphology before transferring to scanner plates. The scanner plates are incubated for an additional 2 days and inspected again before loading on to scanners. To understand the physiological impact of either genetic variation or pharmacological treatment on aging, it is crucial to use quantitative models. The analysis of lifespan data is grounded in the study of two mathematical functions: the survival curve and the hazard function. The survival curve (Figure 54) describes the fraction of a tested population that remains alive over time. The hazard function (Figure 55) is related to the survival curve and provides an intuitive measure of the risk of death. This function describes the probability that atypical individual who is currently alive will soon die, providing a clear visualization of the way a treatment may change patterns in mortality. To obtain high-resolution lifespan data and eliminate confounding factors such as worm handling and operator bias, lifespan data was collected using an Automated Lifespan Machine (ALM). Three biological replicates, derived from synchronizing three independently-maintained lines of N2 worms, were distributed across scanner instruments. Images of the worms were then collected for the next 35 days with no interruption or manipulations. Some plates were excluded after quality checks, but plate number and worm counts for all replicates exceeded the threshold for statistical significance (Table 32, row 1).Lifespan data are represented as the percent of worms surviving over time and the profile of this curve can be modeled by the Kaplan-Meier Estimate of Survival function (Figure 54). The survival curves can be compared by several statistics including mean, median, and maximum lifespan (Table 32), as well as the age of worms at a specific percent survival (Table 34). However, to determine whether one treatment group lived longer than another, survival curves are holistically compared using a log-rank test (Table 33). In this study, all pairwise comparisons between conditions were statistically significant. Tables 32 to 34 detail the raw measurements, calculations, and statistical analysis related to the survival curve in Figure 54. Lifespan is counted with day 0 set at day 1 of adulthood. No death times are recorded until worms are placed on the scanner on day 8 so earlier deaths are excluded from calculations of mean and median. Median lifespan is equal to the time at which 50% of the subjects have died. Mean lifespan is calculated from the area under the survival curve. Maximum lifespan is equal to 95th percentile of lifespans in each group. C.I.: Confidence Interval. See Figure 55 and Table 33 for statistical analysis Table 33: Pairwise statistical analysis of survival curves.

[4] = by number, equimolar Compound 4
[5] = by volume, equimolar Compound 4
[6] = by intensity, equimolar Compound 4

T1 sequence (P42858 with tags, fused parts or gaps with the stated changes): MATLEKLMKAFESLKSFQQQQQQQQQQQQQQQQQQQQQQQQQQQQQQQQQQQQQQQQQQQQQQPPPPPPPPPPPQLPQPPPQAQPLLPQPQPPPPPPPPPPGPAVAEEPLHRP
Chain of Htt Exon-1 Q16 (P42858 with tags, fused parts or gaps DEL34-38): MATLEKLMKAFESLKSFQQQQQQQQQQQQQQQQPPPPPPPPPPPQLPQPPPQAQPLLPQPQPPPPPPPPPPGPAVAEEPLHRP

**Q.** With `Cc1[nH]c2ccc(C(=O)NCCN(C(C)C)C(C)C)cc2c1C` [Compound 22] as the molecule, how does the “microsomal stability in humans, times higher in comparison to mice” value (Microsomal stability) read?
**A.** 20 times

**Q.** With `CCc1c(C)[nH]c2ccc(C(=O)NCCN(CC)CC)cc12` [Compound 4, N-(2-(diethylamino)ethyl)-3-ethyl-2-methyl-1H-indole-5-carboxamide] as the molecule, how does the “solubility in DMSO” value ([1]; initial batch) read?
**A.** limited solubility

**Q.** What about the dissolved in water ([1]; second batch with an HCl modification) of the same molecule?
**A.** ≥ 200 mM

**Q.** And the “% Number, Peak 1” value (Htt Exon-1 Q16; [4])?
**A.** 100%

**Q.** What about the “Size, Peak 1” value (Htt Exon-1 Q16; [4]) of the same molecule?
**A.** 6.0 nm and 6.063 nm

**Q.** And the “% Volume, Peak 1” value (Htt Exon-1 Q16; [5])?
**A.** 0.2%

**Q.** What about the “% Volume, Peak 2” value (Htt Exon-1 Q16; [5]) of the same molecule?
**A.** 99.8%

**Q.** And the “Size, Peak 1” value (Htt Exon-1 Q16; [5])?
**A.** 93.12 nm

**Q.** What about the “Size, Peak 2” value (Htt Exon-1 Q16; [5]) of the same molecule?
**A.** 6.949 nm

**Q.** What about the “assembly state of Q16” value (Htt Exon-1 Q16; exposed to Compound 4) of the same molecule?
**A.** mainly monomeric

**Q.** And the “% Intensity, Peak 1” value (Htt Exon-1 Q46; [6])?
**A.** 83.1%

**Q.** What about the “% Intensity, Peak 2” value (Htt Exon-1 Q46; [6]) of the same molecule?
**A.** 12.9%

**Q.** And the “% Intensity, Peak 3” value (Htt Exon-1 Q46; [6])?
**A.** 4,1%

**Q.** And the “Size, Peak 1” value (Htt Exon-1 Q46; [6])?
**A.** 178.7 nm

**Q.** And the “Size, Peak 2” value (Htt Exon-1 Q46; [6])?
**A.** 9.275 nm

**Q.** And the “Size, Peak 3” value (Htt Exon-1 Q46; [6])?
**A.** 3917 nm

**Q.** What about the “assembly state of Q46” value (Htt Exon-1 Q46; exposed to Compound 4) of the same molecule?
**A.** assembles as mostly aggregates and larger aggregates

**Q.** What about the movement frequency (zebrafish larvae; 1 µM Compound 4 with 500 µM MPP+ (naïve 40.8)) of the same molecule?
**A.** 21.0 movement bouts in 30 minutes

**Q.** And the distance moved (zebrafish larvae; 1, 10 and 20 µM co-incubated with 500 µM MPP+, compared to MPP+)?
**A.** no significant difference

**Q.** What about the “sleep parameters (sleep fragmentation, sleep ratio, velocity, wake bout duration, sleep bout duration)” value (zebrafish larvae; co-incubation with MPP+, between groups) of the same molecule?
**A.** No statistically significant difference

**Q.** And the “overall movement during assessment of neuroprotection” value (zebrafish larvae; concentrations ~10 µM and ~1 µM)?
**A.** subtle increase in overall movement

**Q.** What about the movement frequency (zebrafish larvae; drug treatment groups compared to MPP+) of the same molecule?
**A.** no significant difference

**Q.** And the “concentration at which worms began to decline faster than vehicle control-treated worms” value (C. elegans [2])?
**A.** ≥ 5 µM

**Q.** What about the “Age at 25% mortality” value (C. elegans [3]; 200 nM) of the same molecule?
**A.** 21.42 days

**Q.** And the “Age at 50% mortality” value (C. elegans [3]; 200 nM)?
**A.** 26.16 days

**Q.** And the “Age at 75% mortality” value (C. elegans [3]; 200 nM)?
**A.** 29.57 days

**Q.** What about the “Age at 90% mortality” value (C. elegans [3]; 200 nM) of the same molecule?
**A.** 31.75 days

**Q.** And the “Age at 100% mortality” value (C. elegans [3]; 200 nM)?
**A.** 39.46 days

**Q.** And the Median lifespan (C. elegans [3]; 200nM (vehicle control 24.3))?
**A.** 26.2 days

**Q.** And the Mean lifespan (C. elegans [3]; 200nM (vehicle control 24.7))?
**A.** 25.7

**Q.** What about the Maximum lifespan (C. elegans [3]; 200nM (vehicle control 34.9), 95th percentile) of the same molecule?
**A.** 33.7 days

**Q.** And the “Age at 25% mortality” value (C. elegans [3]; 2 µM)?
**A.** 23.9 days

**Q.** And the “Age at 50% mortality” value (C. elegans [3]; 2 µM)?
**A.** 27.54 days

**Q.** And the “Age at 75% mortality” value (C. elegans [3]; 2 µM)?
**A.** 29.41 days

**Q.** What about the “Age at 90% mortality” value (C. elegans [3]; 2 µM) of the same molecule?
**A.** 31.23 days

**Q.** And the “Age at 100% mortality” value (C. elegans [3]; 2 µM)?
**A.** 39.42 days

**Q.** And the Median lifespan (C. elegans [3]; 2µM (vehicle control 24.3))?
**A.** 27.6 days
